Results on two compounds are retold here after patent publication US7459281B2, “Docetaxel immunoassay” (Saladax Biomedical Inc., priority 2005, dated 2008).

Experiment [1] has as its system docetaxel antibody (antiserum produced in Example 11 with C7 substituted docetaxel acid derivative immunogen). Kind of experiment: Indirect competitive microtiter plate ELISA, IC50 and cross-reactivity, polyclonal antibodies to C7 substituted docetaxel acid derivative conjugate. It is filed as binding, mouse (BALB/c). As to conditions: antibody of Example 11, immunogen of Example 9a. As to the method: Ten Female BALB/c mice were immunized i.p. with 100 μg/mouse of docetaxel-immunogen: either docetaxel-BTG as prepared in Example 9a or docetaxel-KLH immunogen as prepared in Example 9b emulsified in Complete Freund's Adjuvant. After the initial injection mice were boosted once after four weeks with 100 μg/mouse of the same immunogen emulsified in Incomplete Freund's Adjuvant. Ten days after the boosts test bleeds from each mouse were obtained by orbital bleed. The anti-serum from the last test bleeds containing docetaxel antibodies from each of the mice were evaluated by the procedures in Examples 14a and 16 to determine their reactivity to docetaxel and their cross reactivity to 10-O-Deacytlbaccatin III and, paclitaxel [Taxol].
Antibodies were screened by Enzyme-Linked Immunosorbent Assay (ELISA) method. This method for screening docetaxel antibodies (produced in Examples 10 and 11) was performed with the microtiter plates that were sensitized with docetaxel-BSA as described in Examples 12 and 13. The antibody screening assay was performed by diluting the antisera containing docetaxel antibodies to 1:100, 1:1,000, 1:10,000 and 1:100,000 in phosphate buffered saline containing 0.1% BSA and 0.01% thimerosal. To each well of docetaxel-BSA sensitized wells (prepared in Examples 12 and 13) 100 μL of diluted antibody was added and incubated for 10 minutes at room temperature with shaking. During this incubation antibody binds to the docetaxel-conjugate in the well. The wells of the plates were washed three times with 0.02 M TRIS, 0.9% NaCl, 0.5% Tween-80 and 0.001% Thimerosal, pH 7.8 to remove any unbound antibody. […] Following the incubation for color development, 50 μL of stop solution (1.5% sodium fluoride in di H2O) was added to each well to stop the color development and after 10 seconds of shaking the absorbance was determined at 650 nm with a 96-well plate reader. The amount of antibody in a well was proportional to the absorbance measured and was expressed as the dilution (titer) resulting in an absorbance of 1.5. Titers were determined by graphing log antibody dilution of the antibody measured (x-axis) vs. absorbance 650 nm (y-axis) and extrapolating the titer at an absorbance of 1.5. The titer determined the concentration (dilution) of antibody used in the indirect competitive Microtiter plate assay described in Examples 15 and 16.
(§1) Docetaxel concentrations were measured by an indirect competitive Enzyme-Linked Immunosorbent Assay (ELISA) method. […]

Experiment [2] concerns docetaxel monoclonal antibody (produced in Example 11). Kind of experiment: Indirect competitive microtiter plate ELISA, IC50 and cross-reactivity, monoclonal antibodies to C7 substituted docetaxel acid derivative conjugate. It is filed as binding, mouse (BALB/c). The settings on record: monoclonal antibody of Example 11, immunogen of Examples 9a & 9b; microtiter plate prepared as in Example 13. As to the method:
For monoclonal antibodies starting […] before the fusion, the mice were injected i.p. with 400 μg (3 days before fusion), 200 μg (2 days before fusion), and 200 μg (1 day before fusion) on three successive days with either docetaxel-BTG or docetaxel-KLH (depending on the original immunogen) in PBS. According to the protocol of Coligan et al. spleen cells were isolated from the selected mice and fused with 2×10^7 cells of the myeloma fusion partner cell line (SP2/o) using 50% polyethylene glycol 1500 [Coligan, J. E. et al., eds., Current Protocols in Immunology, 2.5.1-2.5.8, (1992), Wiley & Sons, NY.] […]
Antibodies were screened by Enzyme-Linked Immunosorbent Assay (ELISA) method. […] Following the incubation for color development, 50 μL of stop solution (1.5% sodium fluoride in di H2O) was added to each well to stop the color development and after 10 seconds of shaking the absorbance was determined at 650 nm on a 96-well plate reader. The amount of antibody in a well was proportional to the absorbance measured. Samples with an absorbance of three times background or greater were designated as positive.
as §1
On the technique in general: In an ELISA, binding on a coated surface is turned into a signal by an enzyme label.

Where [3] appears, read: microtiter plate prepared as in Example 12.
Where [4] appears, read: microtiter plate prepared as in Example 13.

Structures are written as SMILES.

In the case of `CC(=O)O[C@@]12CO[C@@H]1CC(O)[C@@]1(C)C(=O)[C@H](O)C3=C(C)C(O)C[C@@](O)([C@@H](OC(=O)c4ccccc4)[C@H]21)C3(C)C` (stereo partly drawn) [10-O-Deacytlbaccatin III, 10-O-Deacetylbaccatin III], the results for the “percent cross-reactivity relative to docetaxel (ratio of IC50 for docetaxel to IC50 for analyte)” value in experiment [1] (setting [3]), in experiment [1] (setting [4]) and in experiment [2] were “less than 0.02%”, “less than 0.01%” and “less than 1.0%”, respectively.
The like results for `CC(=O)O[C@H]1C(=O)[C@@]2(C)[C@H]([C@H](OC(=O)c3ccccc3)[C@]3(O)C[C@H](OC(=O)[C@H](O)[C@@H](NC(=O)c4ccccc4)c4ccccc4)C(C)=C1C3(C)C)[C@]1(OC(C)=O)CO[C@@H]1C[C@@H]2O` [Paclitaxel, paclitaxel] were, in that order, “less than 2%”, “less than 1%” and “less than 12%”.
